In assay [1] the target is T1, Protein arginine N-methyltransferase 7 (Homo sapiens, UniProt Q9NVM4).
T1 sequence (Q9NVM4 whole entry): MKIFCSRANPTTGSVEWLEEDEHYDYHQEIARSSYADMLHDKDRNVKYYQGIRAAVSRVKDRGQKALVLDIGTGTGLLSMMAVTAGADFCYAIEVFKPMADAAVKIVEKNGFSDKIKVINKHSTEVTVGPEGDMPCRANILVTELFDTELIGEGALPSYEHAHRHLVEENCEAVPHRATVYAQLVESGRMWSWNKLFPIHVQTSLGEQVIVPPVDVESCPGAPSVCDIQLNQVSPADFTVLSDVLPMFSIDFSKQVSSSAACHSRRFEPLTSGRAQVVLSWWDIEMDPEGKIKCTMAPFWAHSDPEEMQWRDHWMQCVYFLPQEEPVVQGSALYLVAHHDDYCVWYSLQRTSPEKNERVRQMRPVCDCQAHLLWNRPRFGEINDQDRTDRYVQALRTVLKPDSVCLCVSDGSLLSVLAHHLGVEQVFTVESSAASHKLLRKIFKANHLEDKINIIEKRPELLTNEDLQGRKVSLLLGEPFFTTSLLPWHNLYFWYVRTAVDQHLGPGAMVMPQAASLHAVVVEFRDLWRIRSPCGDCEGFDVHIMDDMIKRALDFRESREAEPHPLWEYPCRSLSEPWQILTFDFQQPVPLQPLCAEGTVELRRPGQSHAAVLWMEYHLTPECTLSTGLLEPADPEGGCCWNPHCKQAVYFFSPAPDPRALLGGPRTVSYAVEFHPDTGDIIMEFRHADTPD
In words: Inhibition of human PRMT7 in HEK293T cells assessed as reduction in HSP70 methylation. Format: cell-based.

For assay [2], the target named is T1, Protein arginine N-methyltransferase 7. The assay is described as follows: Inhibition of human PRMT7 in HCT-116 cells assessed as reduction in HSP70 methylation. It is filed as cell-based.
The next assay has as its system MCF7. In words: Antiproliferative activity against human MCF7 cells assessed as reduction in cell viability by MTT assay. Format: functional, cell-based.
Another assay has as its system KB. In words: Antiproliferative activity against human KB cells assessed as reduction in cell viability by MTT assay. Format: functional, cell-based.
A short description of assay [3]: Antiproliferative activity against human MEF cells assessed as reduction in cell viability by MTT assay. It is filed as functional, cell-based.
The subject of another assay is HepG2. In words: Antiproliferative activity against human HepG2 cells assessed as reduction in cell viability by MTT assay. It is filed as functional, cell-based.
The target of assay [4] is T1, Protein arginine N-methyltransferase 7. The assay is described as follows: Inhibition of human PRMT7.
Assay [5] concerns the target Protein arginine N-methyltransferase 5 (Homo sapiens, UniProt O14744). The assay is described as follows: Inhibition of human PRMT5.
The target of assay [6] is T1, Protein arginine N-methyltransferase 7. In words: Inhibition of human recombinant His-tagged PRMT7 extracted from Escherichia coli BL21 (DE3).
Assay [7] has the same target. The assay is described as follows: Inhibition of full length human recombinant PRMT7 extracted from Sf9 cells using […] as substrate incubated for 1 hr by TopCount scintillation proximity assay. Format: cell-free.

Sequence of Protein arginine N-methyltransferase 5 (O14744 whole entry): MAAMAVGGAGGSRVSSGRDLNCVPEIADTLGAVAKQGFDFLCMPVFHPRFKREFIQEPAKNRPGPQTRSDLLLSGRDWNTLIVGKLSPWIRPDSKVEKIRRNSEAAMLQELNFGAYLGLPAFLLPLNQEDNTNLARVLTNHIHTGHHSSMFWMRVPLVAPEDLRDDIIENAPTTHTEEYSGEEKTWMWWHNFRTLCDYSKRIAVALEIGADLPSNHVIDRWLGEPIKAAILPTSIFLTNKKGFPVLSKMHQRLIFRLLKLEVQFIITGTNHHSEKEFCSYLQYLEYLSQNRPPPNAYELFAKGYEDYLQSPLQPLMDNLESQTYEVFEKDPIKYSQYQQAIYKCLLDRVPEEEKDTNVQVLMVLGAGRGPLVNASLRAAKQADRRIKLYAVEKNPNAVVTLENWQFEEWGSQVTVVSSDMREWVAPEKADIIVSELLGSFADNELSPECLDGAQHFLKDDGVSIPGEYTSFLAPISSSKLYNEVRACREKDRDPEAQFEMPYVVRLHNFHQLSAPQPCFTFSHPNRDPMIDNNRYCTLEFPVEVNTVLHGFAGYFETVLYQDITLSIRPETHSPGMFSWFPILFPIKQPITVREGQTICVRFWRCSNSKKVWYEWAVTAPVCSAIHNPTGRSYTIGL

In the case of `CC1=C(C)C(=O)C(C(C)(C)CC(=O)N(CCCCSC[C@H]2O[C@@H](n3cnc4c(N)ncnc43)[C@H](O)[C@@H]2O)Cc2cccc(-c3ccc(Cl)cc3)c2)=C(C)C1=O`, the IC50 in [1] was determined as 2400 nM; in assay [2], 2400 nM; in the assay on MCF7, 2200 nM; in the assay with KB it was 2200 nM; in assay [3] it was 28.4 µM; in the assay on HepG2, 2200 nM.
Take `COc1cc(-c2ncc(F)c(Nc3ccc4nc(C)cc(N)c4c3)n2)cc(OC)c1OC`: the concentration for half-maximal inhibition (IC50) in [4] came out at 5 µM; in [5], 50 µM.
As for `C/N=C(\N)N/N=C(\C)c1ccc2oc3ccc(/C(C)=N/N/C(N)=N/C)cc3c2c1`, in [6], the IC50 stood at 23.3 µM.
For the molecule `Nc1ncnc2c1ncn2[C@@H]1O[C@H](CSCCCCNCc2cccc(-c3ccc(Cl)cc3)c2)[C@@H](O)[C@H]1O`, the IC50 in [7] came to 2500 nM.

Source of the values: ChEMBL document CHEMBL6103549, “PRMT7 in cancer: Structure, effects, and therapeutic potentials” (Eur J Med Chem, 2025).
